# Laboratory results published in ChEMBL document CHEMBL5247631, “Ferroptosis-related small-molecule compounds in cancer therapy: Strategies and applications” (Eur J Med Chem, 2022).
# Tests used:
# [1] = Cytotoxicity against human BJeLR cells overexpress oncogenic RAS assessed as induction of cell death; type: functional, cell-based
# HT-1080 = assay: Induction of ferroptosis in human HT-1080 cells assessed as inhibition of (cystine-glutamate antiporter) system Xc- mediated cystine transport; type: functional, cell-based
# [2] = Induction of ferroptosis in human BJeLR cells assessed as inhibition of (cystine-glutamate antiporter) system Xc- mediated cystine transport; type: functional, cell-based; conditions: bjelr cell
# [3] = Anticancer activity against human PHMLER expressing CD24low phenotype cells assessed as reduction in cell viability incubated for 72 hrs; type: functional, cell-based
# Calu-1 = assay: Induction of ferroptosis in human Calu-1 cells assessed as inhibition of (cystine-glutamate antiporter) system Xc- mediated cystine transport; type: functional, cell-based
# G-361 = assay: Antiproliferative activity against human G-361 cells harboring BRAF V600E mutant assessed as cell viability incubated for 72 hrs by crystal violet staining based assay; type: functional; conditions: G-361, 72 h
# SK-MEL-28 = assay: Antiproliferative activity against human SK-MEL-28 cells harboring BRAF V600E mutant assessed as cell viability incubated for 72 hrs by crystal violet staining based assay; type: functional; conditions: SK-MEL-28, 72 h
# HCT-116 = assay: Antitumor activity against human HCT-116 cells assessed as reduction in cell viability incubated for 48 hrs by CCK8 assay; type: functional, cell-based; conditions: HCT-116, 48 h
# RKO = assay: Antitumor activity against human RKO cells assessed as reduction in cell viability incubated for 48 hrs by CCK8 assay; type: functional, cell-based
# SW480 = assay: Antitumor activity against human SW480 cells assessed as reduction in cell viability incubated for 48 hrs by CCK8 assay; type: functional, cell-based; conditions: SW480, 48 h
# MDA-MB-231 [4] = assay: Cytotoxicity against human MDA-MB-231 cells assessed as inhibition of cell viability incubated for 24 hrs by sulforhodamine B assay; type: functional, cell-based; conditions: MDA-MB-231, 24 h
# DBTRG-05MG = assay: Cytotoxicity against human DBTRG-05MG cells assessed as inhibition of cell viability incubated for 24 hrs by sulforhodamine B assay; type: functional, cell-based
# MDA-MB-231 [5] = assay: Antiproliferative activity against human MDA-MB-231 cells assessed as inhibition of cell viability incubated for 72 hrs by MTT assay; type: functional, cell-based; conditions: MDA-MB-231, 72 h
# LN-229 = assay: Induction of ferroptosis in human LN-229 cells assessed as GPX4 degradation; type: functional, cell-based
# U-118-MG = assay: Induction of ferroptosis in human U-118-MG cells assessed as GPX4 degradation; type: functional, cell-based
# [6] = Antiproliferative activity against BALB/C mouse TBCP-1 cells assessed as inhibition of cell proliferation incubated for 3 days by sulforhodamine B colorimetric assay; type: functional, cell-based; conditions: TBCP-1, 72 h
# SK-BR-3 = assay: Antiproliferative activity against human SK-BR-3 cells assessed as inhibition of cell proliferation incubated for 3 days by sulforhodamine B colorimetric assay; type: functional, cell-based; conditions: SK-BR-3, 72 h
# SGC-7901 = assay: Anticancer activity against human SGC-7901 cells assessed as inhibition of cell viability incubated for 72 hrs by MTT assay; type: functional, cell-based; conditions: SGC-7901, 72 h
# BGC-823 = assay: Anticancer activity against human BGC-823 cells assessed as inhibition of cell viability incubated for 72 hrs by MTT assay; type: functional, cell-based; conditions: BGC-823, 72 h
# NCI-N87 = assay: Anticancer activity against human NCI-N87 cells assessed as inhibition of cell viability incubated for 72 hrs by MTT assay; type: functional, cell-based; conditions: NCI-N87, 72 h
# [7] = Anticancer activity against human BJeLR cells assessed as reduction in cell viability incubated for 24 hrs by CellTiter-Glo luminescent assay; type: functional, cell-based
# [8] = Anticancer activity against human OCI-Ly8 cells assessed as reduction in cell viability incubated for 24 hrs by CellTiter-Glo luminescent assay; type: functional, cell-based; conditions: OCI-Ly8, 24 h
# DOHH-2 = assay: Anticancer activity against human DOHH-2 cells assessed as reduction in cell viability incubated for 24 hrs by CellTiter-Glo luminescent assay; type: functional, cell-based; conditions: DOHH-2, 24 h
# SU-DHL-5 = assay: Anticancer activity against human SU-DHL-5 cells assessed as reduction in cell viability incubated for 24 hrs by CellTiter-Glo luminescent assay; type: functional, cell-based; conditions: SU-DHL-5, 24 h
# SU-DHL-6 = assay: Anticancer activity against human SU-DHL-6 cells assessed as reduction in cell viability incubated for 24 hrs by CellTiter-Glo luminescent assay; type: functional, cell-based; conditions: SU-DHL-6, 24 h
# SU-DHL10 = assay: Anticancer activity against human SU-DHL-10 cells assessed as reduction in cell viability incubated for 24 hrs by CellTiter-Glo luminescent assay; type: functional, cell-based; conditions: SU-DHL10, 24 h
# SU-DHL-16 = assay: Anticancer activity against human SU-DHL-16 cells assessed as reduction in cell viability incubated for 24 hrs by CellTiter-Glo luminescent assay; type: functional, cell-based; conditions: SU-DHL-16, 24 h
# SU-DHL-2 = assay: Anticancer activity against human SUDHL2 cells assessed as reduction in cell viability incubated for 24 hrs by CellTiter-Glo luminescent assay; type: functional, cell-based; conditions: SU-DHL-2, 24 h
# BXPC-3 = assay: Anticancer activity against human BXPC-3 cells assessed as reduction in cell viability incubated for 48 hrs by MTT assay; type: functional, cell-based; conditions: BXPC-3, 48 h
# SW1990 = assay: Anticancer activity against human SW1990 cells assessed as reduction in cell viability incubated for 48 hrs by MTT assay; type: functional, cell-based; conditions: SW1990, 48 h
structure (smiles),measurement,setting,value
O=S(=O)(c1ccc2c(c1)C(=NO)c1cc(S(=O)(=O)N3CCCCC3)ccc1-2)N1CCCCC1,IC50,[1],> 1000 nM
COC(=O)c1ccc([C@H]2c3[nH]c4ccccc4c3C[C@H](C(=O)OC)N2C(=O)CCl)cc1,IC50,HT-1080,100 nM
same,IC50,[2],100 nM
CC[C@@H](C(=O)[C@@H](C)[C@@H](O)[C@H](C)[C@@H]1O[C@@H]([C@@H](CC)C(=O)O)CC[C@@H]1C)[C@H]1O[C@]2(C=C[C@@H](O)[C@]3(CC[C@@](C)([C@H]4CC[C@](O)(CC)[C@H](C)O4)O3)O2)[C@H](C)C[C@@H]1C [SALINOMYCIN],IC50,[3],1000 nM
CCOc1ccccc1-n1c(C(C)N2CCN(C(=O)COc3ccc(Cl)cc3)CC2)nc2ccccc2c1=O (configuration not stated) [ERASTIN],IC50,HT-1080,200 nM
same,IC50,Calu-1,140 nM
same,IC50,[2],625 nM
Cc1cc(-c2nc(-c3ccc(OC(F)(F)F)cc3)no2)nn1Cc1ccnc(N2CCN(C3CC3)CC2)c1,IC50,G-361,4800 nM
same,IC50,SK-MEL-28,2400 nM
C=CCc1ccc(O)c(-c2ccc(O)c(CC=C)c2)c1 [HONOKIOL],IC50,HCT-116,47600 nM
same,IC50,RKO,11400 nM
same,IC50,SW480,15100 nM
CC(C)(C)c1ccc(S(=O)(=O)/C=C/C#N)cc1 [BAY-11-7085],IC50,MDA-MB-231 [4],4310 nM
same,IC50,DBTRG-05MG,5530 nM
C=C1C(=O)O[C@H]2[C@H]1CC/C(COC(=O)/C=C/c1c(OC)cccc1OC)=C\CC[C@@]1(C)O[C@@H]21,IC50,MDA-MB-231 [5],340 nM
O=S(=O)(NC1CCCCC1)c1ccc2c(c1)C(=NO)c1cc(S(=O)(=O)NC3CCCCC3)ccc1-2,IC50,LN-229,4200 nM
same,IC50,U-118-MG,2600 nM
CCOc1cc2ncc(C#N)c(Nc3ccc(OCc4ccccn4)c(Cl)c3)c2cc1NC(=O)/C=C/CN(C)C [NERATINIB],IC50,[6],117 nM
same,IC50,SK-BR-3,7.2 nM
Cc1coc2c1C(=O)C(=O)c1c-2ccc2c1CCCC2(C)C [TANSHINONE IIA],IC50,SGC-7901,250000 nM
same,IC50,BGC-823,2800 nM
same,IC50,NCI-N87,3100 nM
CC(C)Oc1ccc(C(=O)Cn2ccnc2)cc1-n1c(CN2CCN(C(=O)COc3ccc(Cl)cc3)CC2)nc2ccccc2c1=O,IC50,[7],3 nM
same,IC50,[8],1 nM
same,IC50,DOHH-2,14 nM
same,IC50,SU-DHL-5,1 nM
same,IC50,SU-DHL-6,1 nM
same,IC50,SU-DHL10,4 nM
same,IC50,SU-DHL-16,12 nM
same,IC50,SU-DHL-2,21 nM
C[C@@H]1CC[C@@]2(OC1)O[C@H]1C[C@H]3[C@@H]4CC=C5C[C@@H](O)C[C@@H](O)[C@]5(C)[C@H]4CC[C@]3(C)[C@H]1[C@@H]2C [RUSCOGENIN],IC50,BXPC-3,7320 nM
same,IC50,SW1990,8140 nM
